From PMC7617978, “Anti-trypanosomal quinazolines targeting lysyl-tRNA synthetases show partial efficacy in a mouse model of acute Chagas disease” (Science translational medicine, 2025)
Where two headings read alike, the source gives them in different places.

How the values were obtained:
[1] = Metabolic stability in mouse liver microsomes; format: in vitro ADME; conditions: 1 µM, NADPH
Protocol: The metabolic stability of key compounds was assessed using the protocol established by TCG
Lifesciences (India). Briefly, mouse liver microsomes (MLM) were incubated with test
compounds or controls (atenolol, propranolol, diclofenac and verapamil) at 1 µM. Reactions
were initiated by the addition of NADPH and terminated by the addition of acetonitrile. […]

TcKRS1 = TcKRS1 (Trypanosoma cruzi, UniProt Q4D7V3); test: TcKRS1 inhibition assay using BIOMOL Green; format: biochemical; conditions: for IC50: recombinant TcKRS1, 14 μM ATP, 400 μM L-lysine, read-out: IC50 values (95% CI)
Protocol: For TcKRS1 (TcCLB.508971.30), synthetic DNA codon-optimized for expression in E. coli and encoding amino acid residues 54–580 of the TcKRS1 protein was synthesized by Genscript and subcloned into a modified pET15b vector, with an N-terminal 6×His tag and a Tobacco Etch Virus (TEV) cleavage site. The resulting plasmid was transformed into E. coli BL21(DE3) (Stratagene) for expression. A 10-ml starter culture was grown at 37°C overnight, then used to inoculate 1 L of LB Autoinduction media that was grown for 48 h at 20°C. Cell pellets were resuspended in buffer containing 25 mM Tris, 500 mM NaCl, 20 mM imidazole, pH 8.5, and lysed using a continuous flow cell disrupter (Constant Systems). Recombinant TcKRS1 was purified using Ni^2+ affinity chromatography, the 6×His tag cleaved using TEV protease and the tag and protease removed by a second Ni^2+ affinity chromatography step. The protein was further purified via size exclusion chromatography, where TcKRS1 eluted with a mass consistent with the protein forming a dimer. Purified recombinant protein were concentrated to ~1 mg/ml in buffer (25 mM Tris, 150 mM NaCl, 10 % glycerol, pH 7.5) for assay.
The enzymatic activity of recombinant KRS was determined by monitoring the concentration of pyrophosphate released during the first step of the reaction catalyzed by recombinant TcKRS1. The pyrophosphate formed was converted to two inorganic phosphate molecules using a pyrophosphatase enzyme and concentrations of the resulting phosphate were measured using the BIOMOL Green reagent (Enzo Life Sciences). All screening assays were performed in 384-well, clear, flat-bottom plates (Greiner) at room temperature (~23°C) in 50 μl reaction volumes.
To generate IC50 data for test compounds, 10-point inhibitor dose-response curves were prepared in 384-well assay plates using an ECHO 550 acoustic dispenser (Labcyte). Following preparation of the inhibitor curves, assays were carried out for recombinant KRS enzymes as follows: TcKRS1 assay wells contained rTcKRS1 assay buffer (100 mM Tris; […]; HsKRS reactions contained HsKRS assay buffer (30 mM Tris; […].
All assays were performed by adding 25 μl of assay buffer with enzyme to compound-containing assay wells before the reaction was initiated with the addition of a 25 μl substrate mixture containing L-lysine, ATP and pyrophosphatase. […] Following a 6–h reaction at room temperature, the assays were stopped by the addition of 50 μl BIOMOL Green. The BIOMOL Green signal was allowed to develop for 30 min before the absorbance of each well was read at 650 nm using a PheraStar plate reader (BMG). All liquid-dispensing steps were carried out using a Thermo Scientific WellMate dispenser (Matrix).

HepG2 = test: Drug sensitivity assay, HepG2 cells; format: cell-based
Protocol: Human HepG2 cells (ECACC 85011430) were cultivated at 37°C in minimal essential medium (MEM) supplemented with GlutaMax (1×, Thermo Fisher), 10% (v/v) fetal bovine serum (FBS), MEM non-essential amino acids (1×, Sigma) and in the presence of 5% CO2, as previously described ([29]). Cells were passaged twice weekly through detachment of adherent cells with trypsin/EDTA (Sigma) and subsequent dilution into fresh medium.
The relative potency of test compounds against T. cruzi epimastigotes ([29]), T. b. brucei bloodstream forms ([41]), T. b. rhodesiense bloodstream forms ([42]), L. donovani promastigotes ([43]) and Hep G2 cells ([29]) were established as previously described. The potency of test compounds on intracellular T. cruzi (Sylvio, X10/7A1) were determined in 96-well plates as previously described ([29]).

[2] = DMU759 exposure in mice after oral dosing; format: in vivo; conditions: 50 mg/kg oral
Protocol: DMU759 (50 mg/kg) was orally administered to BALB/c mice. The dose solution was prepared on the day of dosing, and the vehicle was 0.5% (w/v) hydroxypropyl methylcellulose and 0.4% […]. Blood samples (10 μl) were collected from the tail vein of each animal at defined intervals then placed into 1.2 mL cryovials containing deionized water (90 μl) and stored at −80°C until analysis. Blood levels of DMU759 in mouse blood were determined by UPLC-MS/MS, as previously described ([58]).

[3] = system: T. cruzi CL Brener strain; test: Bioluminescent mouse model of acute T. cruzi infection; format: in vivo, BALB/c mice; conditions: 50 mg/kg BID oral, 5 days, from 10 days post-infection, bioluminescence imaging
Protocol: Female BALB/c mice (aged 6-7 weeks), purchased from Charles River (UK), were maintained under specific pathogen-free conditions in individually ventilated cages, with a 12 h light/dark cycle. They had access to food and water ad libitum. Mice were infected by intraperitoneal injection (i.p) of 1x10^3 bloodstream trypomastigotes derived from CB17 SCID mouse blood.
Compounds were prepared in 5% (v/v) dimethyl sulfoxide /95% HPMC suspension vehicle (0.5% (w/v) hydroxypropyl methylcellulose, 0.5% (v/v) benzyl alcohol, 0.4% (v/v) Tween 80 in Milli-Q water). Mice were treated as outlined in Fig. 5, with compounds administered by oral gavage. At different days after infection, mice were injected with d-luciferin (150 mg/kg) i.p., anaesthetized using 2.5% (v/v) gaseous isoflurane and imaged using an IVIS Spectrum (Revvity, Hopkinton, MA, USA) 5-10 min later. To estimate parasite burden, mice ventral and dorsal regions of interest were drawn using Living Image 4.7.3 to quantify bioluminescence expressed as total flux (photons/second; p/s). Regions of interest data from infected and not-infected mice were used as controls. Exposure times varied between 30 sec and 5 min, depending on the signal intensity.

CYP3A4 = CYP3A4 (Homo sapiens, UniProt P08684); test: In vitro CYP inhibition, 3A4; format: in vitro ADME
Protocol: Compounds were screened for CYP inhibition activity using the protocol established by TCG Lifesciences (India). The activity of five CYP450 isoforms: 1A2; 2C9; 2D6, 3A4; and 2C19 was monitored in the presence of test or control (miconazole) compounds at 10 µM. Reactions were terminated after 10 min (30 min for CYP2C19) by the addition of acetonitrile, centrifuged and analysed via LC-MS/MS. […]

TcKRS1, sequence (Q4D7V3 entry or part of it): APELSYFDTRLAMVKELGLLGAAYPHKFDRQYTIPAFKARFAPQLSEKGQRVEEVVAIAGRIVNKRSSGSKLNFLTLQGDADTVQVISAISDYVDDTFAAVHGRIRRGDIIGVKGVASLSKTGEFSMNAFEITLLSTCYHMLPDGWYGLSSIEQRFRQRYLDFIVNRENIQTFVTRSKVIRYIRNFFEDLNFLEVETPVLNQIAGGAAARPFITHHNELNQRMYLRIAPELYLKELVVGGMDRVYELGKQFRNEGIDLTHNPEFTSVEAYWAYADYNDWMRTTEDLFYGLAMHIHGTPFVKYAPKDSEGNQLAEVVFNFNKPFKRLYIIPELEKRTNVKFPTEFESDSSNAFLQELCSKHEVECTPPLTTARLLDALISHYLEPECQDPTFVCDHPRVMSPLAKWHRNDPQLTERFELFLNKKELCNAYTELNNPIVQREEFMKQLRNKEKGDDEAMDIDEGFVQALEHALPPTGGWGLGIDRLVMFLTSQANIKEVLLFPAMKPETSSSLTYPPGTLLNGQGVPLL
CYP3A4, sequence (P08684 whole entry, canonical isoform): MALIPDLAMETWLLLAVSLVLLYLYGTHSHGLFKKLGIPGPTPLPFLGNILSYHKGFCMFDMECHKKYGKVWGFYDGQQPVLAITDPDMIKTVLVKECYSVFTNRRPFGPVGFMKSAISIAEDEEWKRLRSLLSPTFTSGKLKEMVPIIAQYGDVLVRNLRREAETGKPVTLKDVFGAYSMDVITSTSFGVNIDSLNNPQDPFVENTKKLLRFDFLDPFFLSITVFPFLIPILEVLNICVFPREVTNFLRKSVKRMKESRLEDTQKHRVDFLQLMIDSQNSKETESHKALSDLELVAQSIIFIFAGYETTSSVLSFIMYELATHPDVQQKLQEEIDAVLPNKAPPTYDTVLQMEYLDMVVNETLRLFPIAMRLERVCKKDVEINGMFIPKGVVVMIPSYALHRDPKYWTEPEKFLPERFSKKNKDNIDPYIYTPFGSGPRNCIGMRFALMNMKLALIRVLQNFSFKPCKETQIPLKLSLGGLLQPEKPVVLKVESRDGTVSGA

Cc1nc(N)c2c(F)c(F)c(NC3CCCC3)c(F)c2n1 [DMU371, N7-Cyclopentyl-5,6,8-trifluoro-2-methylquinazoline-4,7-diamine]
Mouse liver microsome stability [1]: > 500 µL/min/mg
extent of inhibition of TcKRS1 (TcKRS1): full inhibition
IC50 (TcKRS1): 0.185 µM
EC50 (HepG2; Homo sapiens, HepG2, read-out: EC50 value): 5.82 ± 0.5 µM

Cc1nc(N)c2c(F)c(F)c(SC3CCCCC3)c(F)c2n1 [DMU759, 7-(Cyclohexylthio)-5,6,8-trifluoro-2-methylquinazolin-4-amine]
Mouse liver microsome stability [1]: > 500 µL/min/mg
free blood concentration versus EC99 ([2]; corrected for plasma protein binding, in words): did not exceed the established EC99
time of peak blood concentration ([2]; post dosing): one
time total blood concentrations exceeded EC99 ([2]; post dosing): up to 4 hours
extent of inhibition of TcKRS1 (TcKRS1): full inhibition
IC50 (TcKRS1): 0.015 µM
reduction of parasite burden (parasitemia) [3]: up to 81%
inhibition at 10 min, 10 µM (CYP3A4): 0%
EC50 (HepG2; Homo sapiens, HepG2; read-out: EC50 value): 16.9 ± 5.38 µM
